Results on 11 molecules are retold here after patent publication US7838275B2, “Anti-HIV and anti-tumor peptides and fragments of lysozyme” (priority 2000, dated 2010).

The subject of one assay is HIV-1. On the procedure: Human lysozyme (2 mg) was treated with clostripain (10 units, Sigma) in 400 μl of Tris buffer, pH7.6 at 37° C. for 24 h. The digest was resolved by reversed phase chromatography on a ProRPC column (Hr5/10). […] The fractions were assayed for anti-HIV activity by p24 production in HIV-1 infected ACH2 T lymphocytes as described in Lee-Huang et al. (1999).

The subject of assay [1] is HHV8 infected cells of AIDS patients with Kaposi's sarcoma.

Where two headings read alike, the source gives them in different places. Peptide text beside a SMILES is read from it.

The molecule `CC(C)[C@H](NC(=O)[C@H](Cc1c[nH]c2ccccc12)NC(=O)[C@H](C)NC(=O)[C@@H](N)CC(N)=O)C(=O)N[C@@H](C)C(=O)N[C@@H](Cc1c[nH]c2ccccc12)C(=O)N[C@@H](CCCNC(=N)N)C(=O)N[C@@H](CC(N)=O)C(=O)N[C@@H](CCCNC(=N)N)C(=O)O` [HL9 (R107→N), NAWVAWRNR] (H-NAWVAWRNR-OH) came in with an EC50 in the assay with HIV-1 (24 h) greater than 100000 nM.
Same read-out and setting: in the case of `CC(C)[C@H](NC(=O)[C@H](Cc1c[nH]c2ccccc12)NC(=O)[C@H](C)NC(=O)[C@@H](N)CCCNC(=N)N)C(=O)N[C@@H](C)C(=O)N[C@@H](Cc1c[nH]c2ccccc12)C(=O)N[C@@H](CCCCN)C(=O)N[C@@H](CC(N)=O)C(=O)N[C@@H](CCCNC(=N)N)C(=O)O` [HL9 (R113→K), RAWVAWKNR] (H-RAWVAWKNR-OH) it was greater than 100000 nM; in that of `CC(C)[C@H](NC(=O)[C@H](Cc1c[nH]c2ccccc12)NC(=O)[C@H](C)NC(=O)[C@@H](N)CCCNC(=N)N)C(=O)N[C@@H](C)C(=O)N[C@@H](Cc1c[nH]c2ccccc12)C(=O)N[C@@H](CCCNC(=N)N)C(=O)N[C@@H](CC(N)=O)C(=O)N[C@@H](CCCCN)C(=O)O` [HL9 (R115→K), RAWVAWRNK] (H-RAWVAWRNK-OH), greater than 100000 nM.
`CC(C)[C@H](NC(=O)[C@H](Cc1c[nH]c2ccccc12)NC(=O)[C@H](C)NC(=O)[C@@H](N)CCCNC(=N)N)C(=O)N[C@@H](C)C(=O)N[C@@H](Cc1c[nH]c2ccccc12)C(=O)N[C@@H](CCCNC(=N)N)C(=O)N[C@@H](CC(N)=O)C(=O)N[C@@H](CCCNC(=N)N)C(=O)O` [HL9, RAWVAWRNR] (H-RAWVAWRNR-OH): in assay [1], the EC50 was 48 nM.
With `CC[C@H](C)[C@H](NC(=O)CNC(=O)[C@H](CCC(N)=O)NC(=O)[C@@H]1CCCN1C(=O)[C@H](CC(=O)O)NC(=O)[C@H](CCCNC(=N)N)NC(=O)[C@@H](NC(=O)[C@@H](NC(=O)[C@@H](N)CCCNC(=N)N)C(C)C)C(C)C)C(=O)N[C@@H](CCCNC(=N)N)C(=O)N[C@@H](C)C(=O)N[C@@H](Cc1c[nH]c2ccccc12)C(=O)N[C@H](C(=O)N[C@@H](C)C(=O)N[C@@H](Cc1c[nH]c2ccccc12)C(=O)N[C@@H](CCCNC(=N)N)C(=O)N[C@@H](CC(N)=O)C(=O)N[C@@H](CCCNC(=N)N)C(=O)O)C(C)C` [HL18, RVVRDPQGIRAWVAWRNR] (H-RVVRDPQGIRAWVAWRNR-OH; N-terminus and C-terminus assumed), the EC50 came out at 56 nM in assay [1] and 58 nM in the assay on HIV-1 (24 h).
In the case of “Lysozyme: Human lysozyme, whole molecule”, the EC50 in assay [1] (read-out: Anti-KS EC50, Table 4) came out at 54 nM; in the assay on HIV-1 (read-out: Anti-HIV EC50), 50 nM; in the assay on HIV-1 (read-out: Anti-HIV activity (EC50)) it was 50 nM; with HIV-1 (read-out: anti-HIV EC50 (50% inhibition concentration)) it was 55 nM.
In the case of RAWVAYRNR [HL9 (W112→Y)], in the assay with HIV-1, the “Anti-HIV activity (EC50)” value was “No Anti-HIV”.
Still for that read-out and setting: in the case of RAYVAWRNR [HL9 (W109→Y)] it was “No Anti-HIV”.
As to RVVRDPQGI [HL18-N9], in the assay on HIV-1, the “Anti-HIV activity (EC50)” value is given as “No Anti-HIV” and the anti-HIV activity entry is “no anti-HIV activity”.
On to RVVRDPQGIRAWVAYRNR [HL18 (W112-Y)], for which, in the assay on HIV-1, the “Anti-HIV activity (EC50)” value was “No Anti-HIV”.
Same read-out and setting: the value for RVVRDPQGIRAYVAWRNR [HL18 (W109-Y)] was “No Anti-HIV”.
